Laboratory results reported in ChEMBL document CHEMBL3822374, “Anti-inflammatory polyphenol constituents derived from Cissus pteroclada Hayata” (Bioorg Med Chem Lett, 2016).

Assays:
RAW264.7 [1] = experiment: Antiinflammatory activity against LPS-stimulated mouse RAW264.7 cells assessed as COX2 levels at 50 umol/L by ELISA (reference value: 159.64 +/- 13.56 pg/mL); format: functional
RAW264.7 [2] = experiment: Antiinflammatory activity against LPS-stimulated mouse RAW264.7 cells assessed as TNFalpha levels at 5 umol/L by ELISA (reference value: 183.21 +/- 5.36 pg/mL); format: functional
RAW264.7 [3] = experiment: Antiinflammatory activity against LPS-stimulated mouse RAW264.7 cells assessed as iNOS levels at 25 umol/L by ELISA (reference value: 31.63 +/- 3.26 U/mL); format: functional
RAW264.7 [4] = experiment: Cytotoxicity against LPS-stimulated mouse RAW264.7 cells assessed as reduction in cell viability at 50 umol/L after 24 hrs by MTT assay; format: cell-based; conditions: raw264.7, 24 h, 50 µM
RAW264.7 [5] = experiment: Antiinflammatory activity against LPS-stimulated mouse RAW264.7 cells assessed as TNFalpha levels at 25 umol/L by ELISA (reference value: 183.21 +/- 5.36 pg/mL); format: functional
RAW264.7 [6] = experiment: Antiinflammatory activity against LPS-stimulated mouse RAW264.7 cells assessed as IL1beta levels at 25 umol/L by ELISA (reference value: 8.70 +/- 0.365 pg/mL); format: functional
RAW264.7 [7] = experiment: Antiinflammatory activity against LPS-stimulated mouse RAW264.7 cells assessed as IL1beta levels at 5 umol/L by ELISA (reference value: 8.70 +/- 0.365 pg/mL); format: functional
RAW264.7 [8] = experiment: Antiinflammatory activity against LPS-stimulated mouse RAW264.7 cells assessed as COX2 levels at 25 umol/L by ELISA (reference value: 159.64 +/- 13.56 pg/mL); format: functional
RAW264.7 [9] = experiment: Antiinflammatory activity against LPS-stimulated mouse RAW264.7 cells assessed as IL1beta levels at 50 umol/L by ELISA (reference value: 8.70 +/- 0.365 pg/mL); format: functional
RAW264.7 [10] = experiment: Antiinflammatory activity against LPS-stimulated mouse RAW264.7 cells assessed as NO levels at 50 umol/L by ELISA (reference value: 0.95 +/- 0.052 umol/mL); format: functional
RAW264.7 [11] = experiment: Antiinflammatory activity against LPS-stimulated mouse RAW264.7 cells assessed as iNOS levels at 50 umol/L by ELISA (reference value: 31.63 +/- 3.26 U/mL); format: functional
[12] = Inhibition of NFkappaB signaling pathway in LPS-stimulated mouse RAW264.7 cells assessed as protein levels at 5 umol/L by ELISA (reference value: 1.23 +/- 0.06 pg/mL); format: cell-based
RAW264.7 [13] = experiment: Antiinflammatory activity against LPS-stimulated mouse RAW264.7 cells assessed as NO levels at 5 umol/L by ELISA (reference value: 0.95 +/- 0.052 umol/mL); format: functional
RAW264.7 [14] = experiment: Antiinflammatory activity against LPS-stimulated mouse RAW264.7 cells assessed as TNFalpha levels at 50 umol/L by ELISA (reference value: 183.21 +/- 5.36 pg/mL); format: functional
RAW264.7 [15] = experiment: Antiinflammatory activity against LPS-stimulated mouse RAW264.7 cells assessed as NO levels at 25 umol/L by ELISA (reference value: 0.95 +/- 0.052 umol/mL); format: functional
[16] = Inhibition of NFkappaB signaling pathway in LPS-stimulated mouse RAW264.7 cells assessed as protein levels at 50umol/L by ELISA (reference value: 1.23 +/- 0.06 pg/mL); format: cell-based
RAW264.7 [17] = experiment: Antiinflammatory activity against LPS-stimulated mouse RAW264.7 cells assessed as PGE2 levels at 50 umol/L by ELISA (reference value: 33.2 +/- 2.33 pg/mL); format: functional
[18] = Inhibition of NFkappaB signaling pathway in LPS-stimulated mouse RAW264.7 cells assessed as protein levels at 25 umol/L by ELISA (reference value: 1.23 +/- 0.06 pg/mL); format: cell-based
RAW264.7 [19] = experiment: Antiinflammatory activity against LPS-stimulated mouse RAW264.7 cells assessed as iNOS levels at 5 umol/L by ELISA (reference value: 31.63 +/- 3.26 U/mL); format: functional
RAW264.7 [20] = experiment: Antiinflammatory activity against LPS-stimulated mouse RAW264.7 cells assessed as PGE2 levels at 5 umol/L by ELISA (reference value: 33.2 +/- 2.33 pg/mL); format: functional
RAW264.7 [21] = experiment: Antiinflammatory activity against LPS-stimulated mouse RAW264.7 cells assessed as COX2 levels at 5 umol/L by ELISA (reference value: 159.64 +/- 13.56 pg/mL); format: functional
RAW264.7 [22] = experiment: Cytotoxicity against mouse RAW264.7 cells assessed as reduction in cell viability at 50 umol/L after 24 hrs by MTT assay; format: cell-based; conditions: raw264.7, 24 h, 50 µM
RAW264.7 [23] = experiment: Antiinflammatory activity against LPS-stimulated mouse RAW264.7 cells assessed as PGE2 levels at 25 umol/L by ELISA (reference value: 33.2 +/- 2.33 pg/mL); format: functional
RAW264.7 [24] = experiment: Antiinflammatory activity against LPS-stimulated mouse RAW264.7 cells assessed as iNOS levels by ELISA (reference value: 31.63 +/- 3.26 U/mL); format: functional
RAW264.7 [25] = experiment: Antiinflammatory activity against LPS-stimulated mouse RAW264.7 cells assessed as PGE2 levels by ELISA (reference value: 33.2 +/- 2.33 pg/mL); format: functional
RAW264.7 [26] = experiment: Antiinflammatory activity against LPS-stimulated mouse RAW264.7 cells assessed as TNFalpha levels by ELISA (reference value: 183.21 +/- 5.36 pg/mL); format: functional
RAW264.7 [27] = experiment: Antiinflammatory activity against LPS-stimulated mouse RAW264.7 cells assessed as COX2 levels by ELISA (reference value: 159.64 +/- 13.56 pg/mL); format: functional
[28] = Inhibition of NFkappaB signaling pathway in LPS-stimulated mouse RAW264.7 cells assessed as protein levels by ELISA (reference value: 1.23 +/- 0.06 pg/mL); format: cell-based
RAW264.7 [29] = experiment: Antiinflammatory activity against LPS-stimulated mouse RAW264.7 cells assessed as NO levels by ELISA (reference value: 0.95 +/- 0.052 umol/mL); format: functional
RAW264.7 [30] = experiment: Antiinflammatory activity against LPS-stimulated mouse RAW264.7 cells assessed as IL1beta levels by ELISA (reference value: 8.70 +/- 0.365 pg/mL); format: functional
RAW264.7 [31] = experiment: Antiinflammatory activity against LPS-stimulated mouse RAW264.7 cells assessed as downregulation of iNOS levels by ELISA; format: functional, cell-based
[32] = Inhibition of NFkappaB signaling pathway in LPS-stimulated mouse RAW264.7 cells by ELISA; format: cell-based
RAW264.7 [33] = experiment: Antiinflammatory activity against LPS-stimulated mouse RAW264.7 cells assessed as downregulation of COX2 levels by ELISA; format: functional, cell-based
RAW264.7 [34] = experiment: Antiinflammatory activity against LPS-stimulated mouse RAW264.7 cells assessed as downregulation of NO levels by ELISA; format: functional, cell-based
RAW264.7 [35] = experiment: Antiinflammatory activity against LPS-stimulated mouse RAW264.7 cells assessed as downregulation of PGE2 levels by ELISA; format: functional, cell-based

SMILES | Activity (RAW264.7 [1]) [pg/mL] | Activity (RAW264.7 [2]) [pg/mL] | Activity (RAW264.7 [3]) [U/ml] | Activity (RAW264.7 [4]) | Activity (RAW264.7 [5]) [pg/mL] | Activity (RAW264.7 [6]) [pg/mL] | Activity (RAW264.7 [7]) [pg/mL] | Activity (RAW264.7 [8]) [pg/mL] | Activity (RAW264.7 [9]) [pg/mL] | Activity (RAW264.7 [10]) [µmol/mL] | Activity (RAW264.7 [11]) [U/ml] | Activity [12] [pg/mL] | Activity (RAW264.7 [13]) [µmol/mL] | Activity (RAW264.7 [14]) [pg/mL] | Activity (RAW264.7 [15]) [µmol/mL] | Activity [16] [pg/mL] | Activity (RAW264.7 [17]) [pg/mL] | Activity [18] [pg/mL] | Activity (RAW264.7 [19]) [U/ml] | Activity (RAW264.7 [22]) | also measured
O=c1c(O)c(-c2cc(O)c(O)c(O)c2)oc2cc(O)cc(O)c12 [MYRICETIN] | 118.25 | 36.23 | 21.38 | Non-toxic | 35.59 | 0.91 | 3.44 | 142.13 | 0.89 | 0.12 | 17.44 | 0.453 | 0.42 | 35.44 | 0.24 | 0.34 | 23.33 | 0.443 | 24.26 | Non-toxic | Activity (RAW264.7 [20]): 27.23 pg/mL; Activity (RAW264.7 [21]): 174.99 pg/mL; Activity (RAW264.7 [23]): 23.36 pg/mL
COc1ccc2c(c1)c(CC(=O)O)c(C)n2C(=O)c1ccc(Cl)cc1 [INDOMETHACIN] |  |  |  |  |  |  |  |  |  |  |  |  |  |  |  |  |  |  |  |  | Activity (RAW264.7 [24]): 17.38 U/ml; Activity (RAW264.7 [25]): 19.67 pg/mL; Activity (RAW264.7 [26]): 58.55 pg/mL; Activity (RAW264.7 [27]): 71.47 pg/mL; Activity [28]: 0.39 pg/mL; Activity (RAW264.7 [29]): 0.17 µmol/mL; Activity (RAW264.7 [30]): 3.15 pg/mL
O=C1O[C@@H]2[C@@H](O)[C@H](O)[C@@H](CO)O[C@H]2c2c1cc(O)c(O)c2O |  |  |  | Non-toxic |  |  |  |  |  |  |  |  |  |  |  |  |  |  |  | Non-toxic | Activity (RAW264.7 [31]): Dose-dependent effect; inhibition [32]: Dose-dependent effect; Activity (RAW264.7 [33]): Dose-dependent effect; Activity (RAW264.7 [34]): Dose-dependent effect; Activity (RAW264.7 [35]): Dose-dependent effect
COc1c(O)cc2c(c1O)[C@@H]1O[C@H](COC(=O)c3cc(O)c(O)c(O)c3)[C@@H](O)[C@H](O)[C@H]1OC2=O |  |  |  | Non-toxic |  |  |  |  |  |  |  |  |  |  |  |  |  |  |  | Non-toxic | Activity (RAW264.7 [31]): Dose-dependent effect; inhibition [32]: Dose-dependent effect; Activity (RAW264.7 [33]): Dose-dependent effect; Activity (RAW264.7 [34]): Dose-dependent effect; Activity (RAW264.7 [35]): Dose-dependent effect
O=C(O)c1cc(O)c(O)c(O)c1 [GALLIC ACID] | 122.67 | 103.08 | 29.76 | Non-toxic | 80.77 | 4.17 | 4.33 | 149.16 | 4.13 | 0.031 | 20.57 | 0.76 | 0.88 | 62.59 | 0.39 | 0.07 | 30.26 | 0.14 | 35.29 | Non-toxic | Activity (RAW264.7 [20]): 33.06 pg/mL; Activity (RAW264.7 [21]): 183.21 pg/mL; Activity (RAW264.7 [23]): 32.74 pg/mL
O=c1c(O)cccc2cc(O)c(O)c(O)c12 [PURPUROGALLIN] | 67.23 | 52.85 | 22.15 | Non-toxic | 44.36 | 2.95 | 6.7 | 67.73 | 2.88 | 0.21 | 21.64 | 0.32 | 0.59 | 42.44 | 0.42 | 0.053 | 27.57 | 0.086 | 31.37 | Non-toxic | Activity (RAW264.7 [20]): 28.76 pg/mL; Activity (RAW264.7 [21]): 120.78 pg/mL; Activity (RAW264.7 [23]): 28.11 pg/mL
Oc1ccc(/C=C/c2cc(O)cc(O)c2)cc1 [RESVERATROL] | 83.48 | 109.42 | 25.88 | Non-toxic | 96.47 | 4.76 | 5.26 | 104.11 | 2.98 | 0.053 | 19.26 | 0.57 | 0.38 | 74.91 | 0.082 | 0.15 | 28.81 | 0.25 | 29.22 | Non-toxic | Activity (RAW264.7 [20]): 31.43 pg/mL; Activity (RAW264.7 [21]): 121.49 pg/mL; Activity (RAW264.7 [23]): 29.15 pg/mL
COc1c(O)cc2c(c1O)[C@@H]1O[C@H](CO[C@H]3O[C@H](CO)[C@H](O)[C@H](O)[C@H]3O)[C@@H](O)[C@H](O)[C@H]1OC2=O |  |  |  | Non-toxic |  |  |  |  |  |  |  |  |  |  |  |  |  |  |  | Non-toxic | Activity (RAW264.7 [31]): Dose-dependent effect; inhibition [32]: Dose-dependent effect; Activity (RAW264.7 [33]): Dose-dependent effect; Activity (RAW264.7 [34]): Dose-dependent effect; Activity (RAW264.7 [35]): Dose-dependent effect
COc1c(O)cc2c(c1O)[C@@H]1O[C@H](CO)[C@@H](O)[C@H](O)[C@H]1OC2=O [BERGENIN] |  |  |  | Non-toxic |  |  |  |  |  |  |  |  |  |  |  |  |  |  |  | Non-toxic | Activity (RAW264.7 [31]): Dose-dependent effect; inhibition [32]: Dose-dependent effect; Activity (RAW264.7 [33]): Dose-dependent effect; Activity (RAW264.7 [34]): Dose-dependent effect; Activity (RAW264.7 [35]): Dose-dependent effect
